# Laboratory results as given in patent US20250114374A1, “BCL-2 INHIBITORS” (Newave Pharmaceutical Inc., priority 2021, published 2025).
# System: RS4; 11 with G101V mutation
# Assay: In vitro anti-proliferation assay (ATPlite luminescence) in BCL-2-dependent ALL cell line RS4;11 with G101V mutation
# Type: cell-based
# Settings: Homo sapiens, RS4-11, 72 h; read-out: RS411-G101V IC50
# How it was run: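 RS4;11 G101V cells at about 1×10^4 per well were exposed to a range of compound concentrations for about 72 h in medium with 10% FBS. Cellular ATP was measured by ATPlite luminescence after lysis, and IC50 was derived from the dose-response.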
row,IC50 [nM],SMILES
1,385,"CC(C)Oc1ccccc1[C@@H]1CN([C@H]2CCOc3c(F)cc(F)cc32)CCN1C1CC2(CCN(c3ccc(C(=O)NS(=O)(=O)c4cc5c(c([N+](=O)[O-])c4)N[C@H](C4CCOCC4)CO5)c(N4c5cc6cc[nH]c6nc5O[C@H]5COCC[C@@H]54)c3)CC2)C1 [Example 214, 4-(2-((R)-4-((S)-6,8-difluorochroman-4-yl)-2-(2-isopropoxyphenyl)piperazin-1-yl)-7-azaspiro[3.5]nonan-7-yl)-N-(((R)-5-nitro-3-(tetrahydro-2H-pyran-4-yl)-3,4-dihydro-2H-benzo[b][1,4]oxazin-7-yl)sulfonyl)-2-((5aS,9aR)-6,7,9,9a-tetrahydro-1H-pyrano[3,4-b]pyrrolo[3′,2′:5,6]pyrido[3,2-e][1,4]oxazin-5(5aH)-yl)benzamide]"
2,48,"CC(C)Oc1ccccc1[C@@H]1CN([C@@H]2CCOc3c(F)cc(F)cc32)CCN1C1CC2(CCN(c3ccc(C(=O)NS(=O)(=O)c4cc5c(c([N+](=O)[O-])c4)N[C@H](C4CCOCC4)CO5)c(N4c5cc6cc[nH]c6nc5O[C@H]5COCC[C@@H]54)c3)CC2)C1 [Example 215, 4-(2-((R)-4-((R)-6,8-difluorochroman-4-yl)-2-(2-isopropoxyphenyl)piperazin-1-yl)-7-azaspiro[3.5]nonan-7-yl)-N-(((R)-5-nitro-3-(tetrahydro-2H-pyran-4-yl)-3,4-dihydro-2H-benzo[b][1,4]oxazin-7-yl)sulfonyl)-2-((5aS,9aR)-6,7,9,9a-tetrahydro-1H-pyrano[3,4-b]pyrrolo[3′,2′:5,6]pyrido[3,2-e][1,4]oxazin-5(5aH)-yl)benzamide]"
3,30.6,"CC(C)Oc1ccccc1[C@@H]1CN([C@H]2COCc3cc(F)c(F)cc32)CCN1C1CC2(CCN(c3ccc(C(=O)NS(=O)(=O)c4cc5c(c([N+](=O)[O-])c4)N[C@H](C4CCOCC4)CO5)c(N4c5cc6cc[nH]c6nc5O[C@H]5COCC[C@@H]54)c3)CC2)C1 [Example 216, 4-(2-((R)-4-((R)-6,7-difluoroisochroman-4-yl)-2-(2-isopropoxyphenyl)piperazin-1-yl)-7-azaspiro[3.5]nonan-7-yl)-N-(((R)-5-nitro-3-(tetrahydro-2H-pyran-4-yl)-3,4-dihydro-2H-benzo[b][1,4]oxazin-7-yl)sulfonyl)-2-((5aS,9aR)-6,7,9,9a-tetrahydro-1H-pyrano[3,4-b]pyrrolo[3′,2′:5,6]pyrido[3,2-e][1,4]oxazin-5(5aH)-yl)benzamide]"
4,94.9,"CC(C)Oc1ccccc1[C@@H]1CN([C@@H]2COCc3cc(F)c(F)cc32)CCN1C1CC2(CCN(c3ccc(C(=O)NS(=O)(=O)c4cc5c(c([N+](=O)[O-])c4)N[C@H](C4CCOCC4)CO5)c(N4c5cc6cc[nH]c6nc5O[C@H]5COCC[C@@H]54)c3)CC2)C1 [Example 217, 4-(2-((R)-4-((S)-6,7-difluoroisochroman-4-yl)-2-(2-isopropoxyphenyl)piperazin-1-yl)-7-azaspiro[3.5]nonan-7-yl)-N-(((R)-5-nitro-3-(tetrahydro-2H-pyran-4-yl)-3,4-dihydro-2H-benzo[b][1,4]oxazin-7-yl)sulfonyl)-2-((5aS,9aR)-6,7,9,9a-tetrahydro-1H-pyrano[3,4-b]pyrrolo[3′,2′:5,6]pyrido[3,2-e][1,4]oxazin-5(5aH)-yl)benzamide]"
5,121,"CC(C)Oc1ccccc1[C@@H]1CN([C@H]2CCOc3nc(N4CCOC[C@@H]4C)c(F)cc32)CCN1C1CC2(CCN(c3ccc(C(=O)NS(=O)(=O)c4cc5c(c([N+](=O)[O-])c4)N[C@H](C4CCOCC4)CO5)c(N4c5cc6cc[nH]c6nc5O[C@H]5COCC[C@@H]54)c3)CC2)C1 [Example 218, 4-(2-((R)-4-((S)-6-fluoro-7-((S)-3-methylmorpholino)-3,4-dihydro-2H-pyrano[2,3-b]pyridin-4-yl)-2-(2-isopropoxyphenyl)piperazin-1-yl)-7-azaspiro[3.5]nonan-7-yl)-N-(((R)-5-nitro-3-(tetrahydro-2H-pyran-4-yl)-3,4-dihydro-2H-benzo[b][1,4]oxazin-7-yl)sulfonyl)-2-((5aS,9aR)-6,7,9,9a-tetrahydro-1H-pyrano[3,4-b]pyrrolo[3′,2′:5,6]pyrido[3,2-e][1,4]oxazin-5(5aH)-yl)benzamide]"
6,56.3,"CC(C)Oc1ccccc1[C@@H]1CN([C@@H]2CCOc3nc(N4CCOC[C@@H]4C)c(F)cc32)CCN1C1CC2(CCN(c3ccc(C(=O)NS(=O)(=O)c4cc5c(c([N+](=O)[O-])c4)N[C@H](C4CCOCC4)CO5)c(N4c5cc6cc[nH]c6nc5O[C@H]5COCC[C@@H]54)c3)CC2)C1 [Example 219, 4-(2-((R)-4-((R)-6-fluoro-7-((S)-3-methylmorpholino)-3,4-dihydro-2H-pyrano[2,3-b]pyridin-4-yl)-2-(2-isopropoxyphenyl)piperazin-1-yl)-7-azaspiro[3.5]nonan-7-yl)-N-(((R)-5-nitro-3-(tetrahydro-2H-pyran-4-yl)-3,4-dihydro-2H-benzo[b][1,4]oxazin-7-yl)sulfonyl)-2-((5aS,9aR)-6,7,9,9a-tetrahydro-1H-pyrano[3,4-b]pyrrolo[3′,2′:5,6]pyrido[3,2-e][1,4]oxazin-5(5aH)-yl)benzamide]"
7,261,"CC(C)Oc1ccccc1[C@@H]1CN([C@@H]2COc3c(F)cc(F)cc3C2)CCN1C1CC2(CCN(c3ccc(C(=O)NS(=O)(=O)c4cc5c(c([N+](=O)[O-])c4)N[C@H](C4CCOCC4)CO5)c(N4c5cc6cc[nH]c6nc5O[C@H]5COCC[C@@H]54)c3)CC2)C1 [Example 220, 4-(2-((R)-4-((S)-6,8-difluorochroman-3-yl)-2-(2-isopropoxyphenyl)piperazin-1-yl)-7-azaspiro[3.5]nonan-7-yl)-N-(((R)-5-nitro-3-(tetrahydro-2H-pyran-4-yl)-3,4-dihydro-2H-benzo[b][1,4]oxazin-7-yl)sulfonyl)-2-((5aS,9aR)-6,7,9,9a-tetrahydro-1H-pyrano[3,4-b]pyrrolo[3′,2′:5,6]pyrido[3,2-e][1,4]oxazin-5(5aH)-yl)benzamide]"
8,130,"CC(C)Oc1ccccc1[C@@H]1CN([C@H]2COc3c(F)cc(F)cc3C2)CCN1C1CC2(CCN(c3ccc(C(=O)NS(=O)(=O)c4cc5c(c([N+](=O)[O-])c4)N[C@H](C4CCOCC4)CO5)c(N4c5cc6cc[nH]c6nc5O[C@H]5COCC[C@@H]54)c3)CC2)C1 [Example 221, 4-(2-((R)-4-((R)-6,8-difluorochroman-3-yl)-2-(2-isopropoxyphenyl)piperazin-1-yl)-7-azaspiro[3.5]nonan-7-yl)-N-(((R)-5-nitro-3-(tetrahydro-2H-pyran-4-yl)-3,4-dihydro-2H-benzo[b][1,4]oxazin-7-yl)sulfonyl)-2-((5aS,9aR)-6,7,9,9a-tetrahydro-1H-pyrano[3,4-b]pyrrolo[3′,2′:5,6]pyrido[3,2-e][1,4]oxazin-5(5aH)-yl)benzamide]"
9,223,"CC(C)Oc1ccccc1[C@@H]1CN(c2ccncc2)CCN1C1CC2(CCN(c3ccc(C(=O)NS(=O)(=O)c4cc5c(c([N+](=O)[O-])c4)N[C@H](C4CCOCC4)CO5)c(N4c5cc6cc[nH]c6nc5O[C@H]5COCC[C@@H]54)c3)CC2)C1 [Example 223, 4-(2-((R)-2-(2-isopropoxyphenyl)-4-(pyridin-4-yl)piperazin-1-yl)-7-azaspiro[3.5]nonan-7-yl)-N-(((R)-5-nitro-3-(tetrahydro-2H-pyran-4-yl)-3,4-dihydro-2H-benzo[b][1,4]oxazin-7-yl)sulfonyl)-2-((5aS,9aR)-6,7,9,9a-tetrahydro-1H-pyrano[3,4-b]pyrrolo[3′,2′:5,6]pyrido[3,2-e][1,4]oxazin-5(5aH)-yl)benzamide]"

# Same assay, conditions: cellular anti-proliferative IC50, about 72 hours, medium with 10% FBS, ATPlite; read-out: RS411-G101V IC50
row,SMILES,IC50 [nM]
1,"CC(C)Oc1ccccc1[C@@H]1CN(c2ccccc2)CCN1C1CC2(CCN(c3ccc(C(=O)NS(=O)(=O)c4cc5c(c([N+](=O)[O-])c4)N[C@H](C4CCOCC4)CO5)c(N4c5cc6cc[nH]c6nc5O[C@H]5COCC[C@@H]54)c3)CC2)C1 [Example 222, 2-[(3R,8S)-2,5-dioxa-9,15,17-triazatetracyclo[8.7.0.0^{3,8}.0^{12,16}]heptadeca-1(10),11,13,16-tetraen-9-yl]-4-{2-[(2R)-2-(2-isopropoxyphenyl)-4-phenylpiperazin-1-yl]-7-azaspiro[3.5]nonan-7-yl}-N-[(3R)-5-nitro-3-(oxan-4-yl)-3,4-dihydro-2H-1,4-benzoxazin-7-ylsulfonyl]benzamide]",240
2,"CC(C)Oc1ccccc1[C@@H]1CN(c2cccnc2)CCN1C1CC2(CCN(c3ccc(C(=O)NS(=O)(=O)c4cc5c(c([N+](=O)[O-])c4)N[C@H](C4CCOCC4)CO5)c(N4c5cc6cc[nH]c6nc5O[C@H]5COCC[C@@H]54)c3)CC2)C1 [Example 224, 2-[(3R,8S)-2,5-dioxa-9,15,17-triazatetracyclo[8.7.0.0^{3,8}.0^{12,16}]heptadeca-1(10),11,13,16-tetraen-9-yl]-4-{2-[(2R)-2-(2-isopropoxyphenyl)-4-(pyridin-3-yl)piperazin-1-yl]-7-azaspiro[3.5]nonan-7-yl}-N-[(3R)-5-nitro-3-(oxan-4-yl)-3,4-dihydro-2H-1,4-benzoxazin-7-ylsulfonyl]benzamide]",136
3,"CC(C)Oc1ccccc1[C@@H]1CN(c2ccccn2)CCN1C1CC2(CCN(c3ccc(C(=O)NS(=O)(=O)c4cc5c(c([N+](=O)[O-])c4)N[C@H](C4CCOCC4)CO5)c(N4c5cc6cc[nH]c6nc5O[C@H]5COCC[C@@H]54)c3)CC2)C1 [Example 225, 2-[(3R,8S)-2,5-dioxa-9,15,17-triazatetracyclo[8.7.0.0^{3,8}.0^{12,16}]heptadeca-1(10),11,13,16-tetraen-9-yl]-4-{2-[(2R)-2-(2-isopropoxyphenyl)-4-(pyridin-2-yl)piperazin-1-yl]-7-azaspiro[3.5]nonan-7-yl}-N-[(3R)-5-nitro-3-(oxan-4-yl)-3,4-dihydro-2H-1,4-benzoxazin-7-ylsulfonyl]benzamide]",180
